Data published in patent US20220152065A1, “METHOD OF BLOCKING OR AMELIORATING CYTOKINE RELEASE SYNDROME” (Rigel Pharmaceuticals, Inc., priority 2019, published 2022).

What was measured:
[1] = tested on: Dendritic cells + T cells + CD3/CD28 beads (IL-6 production); test: CRS assay: IL6 ELISA of supernatant from dendritic cells + T cells + CD3/CD28 beads; type: cell-based; conditions: human PBMC-derived dendritic cells, 1 h compound pre-incubation, T cells with CD3/CD28 beads overnight; IL-6 in supernatant
Protocol: Transfer human PBMC cells (400 million) obtained from the vendor into three T-175 flasks containing 16 ml RPMI media (10% FBS) and incubate for 2 h at 37° C. After 2 h, remove floating PBL and rinse cell twice with 10 ml of media. Save PBL and media for T cell expansion. Add 16 ml of fresh RPMI media (10% FBS) containing GMCSF (100 ng/ml) and IL4 (20 ng/ml) and keep the flask in 37° C. incubator. […]
After 4 days, harvest the dendritic cells by spinning down (1000 rpm/10 min) and aspirate the media. […] To the remaining 40 μl/well of the cell culture plate add 25 μl of Cell Titer Glo reagent, incubate for 1-2 minutes on a shaker and read the plate for luminescence intensity to determine the compound cytotoxicity. […]

[2] = tested on: Dendritic cells + T cells + CD3/CD28 beads (IL-2 production); test: CRS assay: IL2 ELISA of supernatant from dendritic cells + T cells + CD3/CD28 beads; type: cell-based; conditions: human PBMC-derived dendritic cells, 1 h compound pre-incubation, T cells with CD3/CD28 beads overnight; IL-2 in supernatant
Source text: • 1. Human PBMC cells (PPA Research Group, Cat No. 15-00021) • 2. RPMI media 10% FBS • 3. GMCSF (Peprotech, Cat No. 300-03) and IL4 (Peprotech Cat No. 200-04) • 4. White clear bottom 96 well plates (Fisher, Cat No. 07-200-587, Corning #3903) • 5. Human IL-2 DuoSet ELISA (R&D Systems, Cat No. DY202) • 6. Human IL-6 DuoSet ELISA (R&D Systems, Cat No. DY206) • 7. Cell Titer Glo reagent (Promega, Cat No. G7573) • 8. Dynabeads Human T-Activator CD3/CD28 (Fisher, Cat No. 111.61D) • 9. Anti-human CD3 (BD Biosciences, Cat No. 555336) • 10. CD28, Clone CD28.2 (Beckman Coulter Inc. Cat No. IM1376) • 11. Recombinant Human IL-2 Protein (R&D Systems, Cat No. 202-IL-500)
Transfer human PBMC cells (400 million) obtained from the vendor into three T-175 flasks containing 16 ml RPMI media (10% FBS) and incubate for 2 h at 37° C. After 2 h, remove floating PBL and rinse cell twice with 10 ml of media. Save PBL and media for T cell expansion. Add 16 ml of fresh RPMI media (10% FBS) containing GMCSF (100 ng/ml) and IL4 (20 ng/ml) and keep the flask in 37° C. incubator. After 3 days, add fresh GMCSF (100 ng/ml) and IL4 (20 ng/ml) to the flask and continue the incubation.
• 1. […]
• 1. […] To the remaining 40 μl/well of the cell culture plate add 25 μl of Cell Titer Glo reagent, incubate for 1-2 minutes on a shaker and read the plate for luminescence intensity to determine the compound cytotoxicity. […]

[3] = biological target: Fc receptor signaling (degranulation); conditions: IgE- and IgG-mediated Fc receptor activation; cited from earlier work

SMILES: COc1cc(Nc2ncc(F)c(Nc3ccc4c(n3)NC(=O)C(C)(C)O4)n2)cc(OC)c1OC [Compound R406, 6-((5-fluoro-2-((3,4,5-trimethoxyphenyl)amino)pyrimidin-4-yl)amino)-2,2-dimethyl-2H-pyrido[3,2-b][1,4]oxazin-3(4H)-one]
- IC50 [1]: 0.119 µM
- IC50 [2]: 3.14 µM
- EC50 [3]: 0.056 to 0.064 µM
